The values that follow come from PMC12004264 (2025).

Experiment [1] concerns ds26 (DNA, duplex) CAATCGGATCGAATTCGATCCGATTG
Kind of experiment: fluorescence titration, ligand emission, Hill fit. The note with it: K+ 100 mM, apparent, PBS 20 mM phosphate, pH 6.8, room temperature, ligand 10 μM.

Experiment [2] deals with G4 Tel (DNA, G4) AGGGTTAGGGTTAGGGTTAGGG
The experiment is described as follows: fluorescence titration, ligand emission, Hill fit. Particulars: apparent, ligand 10 μM.

Experiment [3] shares this test system. Kind of experiment: CD melting. Particulars: K+ (concentration not restated for melting); 8 equiv. ligand; 16 μM.
Experiment [4] has as its system MYC (DNA, G4) TGAGGGTGGGTAGGGTGGGTAA
Kind of experiment: Hoechst 33258 fluorescent displacement. The note with it: Hoechst 33258 displaced, quenching nearly 35%; tracking lost at higher ligand.

The test system is the same in experiment [5]. The experiment is described as follows: fluorescence titration, ligand emission, Hill fit. Particulars: K+ 100 mM, apparent, PBS 20 mM phosphate, pH 6.8, room temperature, ligand 10 μM.
The subject of experiment [6] is KRAS (DNA, G4) AGGGCGGTGTGGGAAGAGGGAAGAGGGGGAGG
The experiment is described as follows: fluorescence titration, ligand emission, Hill fit. The note with it: K+ 100 mM, apparent, PBS 20 mM phosphate, pH 6.8, room temperature, ligand 10 μM.

Experiment [7] has as its system MYC (DNA, G4) TGAGGGTGGGTAGGGTGGGTAA
Kind of experiment: CD melting. Particulars: K+ (concentration not restated for melting); 8 equiv. ligand; 16 μM.

A word on the ΔTm: it is the change in melting temperature against a reference sample. As for `COc1ccc(-c2cc3c(cc2-c2cc[n+](C)cc2)c(=O)c2ccccc2n3C)cc1`, the KD was 14.95 ± 1.00 µM in experiment [1] (Hill n 0.98); 3.30 ± 0.11 µM in experiment [2] (K+ 100 mM, PBS 20 mM phosphate, pH 6.8, room temperature, Hill n 0.98); 2.08 ± 0.07 µM in experiment [2] (Na+ (Tris-NaCl), Tris-NaCl buffer, room temperature, Hill n 0.80, buffer alone quenches 31%); 1.86 ± 0.04 µM in experiment [5] (Hill n 1.33); 9.62 ± 0.70 µM in experiment [6] (Hill n 0.97). Further, the ΔTm is 0.9 °C in experiment [3] and 10.7 °C in experiment [7]. For the same compound, the binding result in experiment [4] was “yes”.

Turning to `COc1ccc(-c2cc3c(cc2-c2ccncc2)c(=O)c2ccccc2n3C)cc1`, the KD in experiment [1] (Hill n 15.27) came out at 3.73 ± 0.02 µM; in experiment [2] (K+ 100 mM, PBS 20 mM phosphate, pH 6.8, room temperature, Hill n 7.83), 2.58 ± 0.03 µM; in experiment [2] (Na+ (Tris-NaCl), Tris-NaCl buffer, room temperature, Hill n 4.66, buffer alone quenches 44%), 3.45 ± 0.05 µM; in experiment [5] (Hill n 4.68), 10.85 ± 0.30 µM; in experiment [6] (Hill n 8.07), 5.51 ± 0.079 µM. Besides, the ΔTm amounted to 1.7 °C in experiment [3] and 6.2 °C in experiment [7].
